According to the supplement of paper PMC10307832:

Legend:
Assay in all cases: relative viability (nuclei count vs DMSO), 5 days (fraction); higher = more cells survive
[1] = compound: CCn1c(-c2nonc2N)nc2c(C#CC(C)(C)O)ncc(OC[C@H]3CCCNC3)c21
Method in brief: (§1)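 Only plates meeting two conditions passed: control CV below 25% and at least one doubling. Lung cancer cell lines, kept overnight at 37 °C in 1536-well plates, were pinned with five library-drug doses (not always all listed) √10 apart on vehicle-anchored plates and grown 5 days without medium change. A one-step fix, permeabilisation and Hoechst stain preceded 4× imaging and MetaXpress nuclear counting. Viability equals treated-well nuclei divided by vehicle-well nuclei, as the median over plates.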

BAM7 = compound: CCOC1=CC=CC=C1N=NC2=C(NN(C2=O)C3=NC(=CS3)C4=CC=CC=C4)C [BAM7]
Method in brief: as §1

[2] = compound: CCn1c(-c2nonc2N)nc2c(C#CC(C)(C)O)ncc(OC[C@H]3CCCNC3)c21 + Nc1nc2[nH]cc(CCc3ccc(C(=O)N[C@@H](CCC(=O)O)C(=O)O)cc3)c2c(=O)[nH]1 [Pemetrexed] (partner 0.2 µM)
Method in brief: (§2)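 Lung cancer cell lines, seeded in 1536-well plates, were treated the following day by pin tool with a single drug or with five library-drug doses (not always all listed) in √10 steps on top of a fixed anchor-drug dose. Cells were fixed and nuclei stained in one step after 5 days, and nuclei were counted. Relative viability is the nuclei count for treated wells divided by that for vehicle wells, reported as medians of duplicate plates.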

BAM7 + OSI-027 = compound: CCOC1=CC=CC=C1N=NC2=C(NN(C2=O)C3=NC(=CS3)C4=CC=CC=C4)C [BAM7] + COc1cccc2cc(-c3nc([C@H]4CC[C@H](C(=O)O)CC4)n4ncnc(N)c34)[nH]c12 [OSI-027] (partner 0.5 µM)
Method in brief: as §2

| Cell Line | relative viability ([1]; 0.01 µM) | relative viability ([1]; 0.03162 µM) | relative viability ([1]; 0.1 µM) | relative viability ([1]; 0.3162 µM) | relative viability ([1]; 1 µM) | relative viability (BAM7; 0.5 µM) | relative viability (BAM7; 5 µM) | relative viability (BAM7; 15.81 µM) | relative viability (BAM7; 50 µM) | relative viability ([2]; first compound 0.01 µM) | relative viability ([2]; first compound 0.03162 µM) | relative viability ([2]; first compound 0.1 µM) | relative viability ([2]; first compound 0.3162 µM) | relative viability ([2]; first compound 1 µM) | relative viability (BAM7 + OSI-027; first compound 0.5 µM) | relative viability (BAM7 + OSI-027; first compound 5 µM) | relative viability (BAM7 + OSI-027; first compound 15.81 µM) | relative viability (BAM7 + OSI-027; first compound 50 µM) |
| --- | --- | --- | --- | --- | --- | --- | --- | --- | --- | --- | --- | --- | --- | --- | --- | --- | --- | --- |
| 201T | 0.95 | 0.987 | 0.959 | 0.952 | 0.986 | 0.918 | 0.865 | 0.793 | 0.861 | 0.321 | 0.317 | 0.343 | 0.333 | 0.311 | 0.772 | 0.662 | 0.708 | 0.705 |
| A549 | 0.934 | 0.995 | 0.996 | 0.896 | 0.951 | 1.01 | 1.07 | 0.948 | 1.03 | – | – | – | – | – | – | – | – | – |
| A-427 | 0.994 | 1.06 | 0.918 | 0.965 | 1.08 | 1.05 | 1.08 | 1 | 1.09 | 0.925 | 0.999 | 0.876 | 0.91 | 1.08 | 0.58 | 0.466 | 0.491 | 0.49 |
| ABC-1 | 0.934 | 0.869 | 0.864 | 0.768 | 0.696 | 0.919 | 1.05 | 0.855 | 1.14 | – | – | – | – | – | 0.491 | 0.504 | 0.474 | 0.593 |
| BEN | 0.988 | 1.03 | 0.735 | 0.935 | 0.962 | 1.04 | 1.05 | 1.11 | 0.981 | 0.779 | 0.821 | 0.605 | 0.753 | 0.773 | 0.306 | 0.299 | 0.314 | 0.326 |
| CAL-12T | 1.12 | 0.997 | 0.94 | 0.973 | 0.997 | 1.05 | 1.01 | 0.952 | 1.07 | 1.12 | 1.2 | 1.13 | 0.994 | 1.2 | 0.553 | 0.492 | 0.432 | 0.845 |
| COR-L23 | 0.991 | 1.04 | 0.986 | 0.973 | 1.04 | 0.982 | 1.07 | 0.966 | 1.01 | 0.212 | 0.207 | 0.202 | 0.187 | 0.196 | 0.772 | 0.74 | 0.802 | 0.858 |
| COR-L 105 | 0.919 | 0.961 | 1.01 | 0.843 | 1.04 | 0.833 | 0.909 | 0.95 | 1.14 | 1.18 | 1.21 | 1.18 | 1.23 | 1.3 | 0.688 | 0.579 | 0.73 | 0.713 |
| Calu-6 | 0.995 | 1.02 | 1.02 | 0.982 | 1.03 | 1.07 | 1.06 | 0.989 | 0.995 | – | – | – | – | – | – | – | – | – |
| ChaGo-K-1 | 0.965 | 0.988 | 0.972 | 0.936 | 1 | 0.966 | 1.02 | 1.01 | 0.92 | 0.262 | 0.254 | 0.26 | 0.258 | 0.248 | 0.444 | 0.481 | 0.52 | 0.525 |
| EBC-1 | 0.986 | 0.963 | 0.973 | 0.883 | 0.757 | 1.05 | 1.04 | 0.952 | 1.06 | – | – | – | – | – | – | – | – | – |
| EKVX | 0.962 | 0.942 | 0.97 | 0.933 | 0.924 | 1.05 | 0.982 | 0.843 | 0.86 | 0.424 | 0.388 | 0.409 | 0.393 | 0.355 | 0.648 | 0.768 | 0.557 | 0.662 |
| EMC-BAC-2 | 0.919 | 0.725 | 0.933 | 0.937 | 1.04 | 1.03 | 1.08 | 1.22 | 1.02 | 0.391 | 0.427 | 0.443 | 0.43 | 0.427 | 0.378 | 0.384 | 0.355 | 0.461 |
| EPLC-272H | 0.874 | 0.936 | 0.869 | 0.91 | 0.87 | 0.989 | 0.95 | 0.95 | 0.995 | 0.299 | 0.301 | 0.346 | 0.297 | 0.282 | 0.289 | – | 0.277 | 0.32 |
| H3255 | 0.924 | 0.949 | 0.998 | 0.856 | 0.904 | 0.99 | 1.02 | 0.963 | 0.995 | 0.543 | 0.571 | 0.618 | 0.536 | 0.548 | 0.593 | 0.622 | 0.443 | 0.568 |
| HARA | 0.85 | 0.97 | 0.722 | 0.876 | 0.778 | 0.942 | 1.01 | 0.836 | 0.986 | 0.24 | 0.19 | 0.223 | 0.247 | 0.249 | 0.53 | 0.63 | 0.468 | 0.485 |
| HCC-15 | 0.959 | 1.02 | 1.04 | 0.952 | 0.914 | 1.01 | 1.01 | 0.97 | 0.927 | 0.218 | 0.225 | 0.218 | 0.211 | 0.209 | 0.727 | 0.696 | 0.7 | 0.758 |
| HCC-44 | 0.951 | 0.852 | 0.979 | 0.974 | 0.993 | 0.923 | 0.997 | 1.02 | 1.01 | 0.633 | 0.649 | 0.661 | 0.577 | 0.636 | 0.534 | 0.61 | 0.476 | 0.505 |
| HCC-78 | 0.882 | 0.926 | 0.971 | 0.962 | 0.844 | 1.06 | 0.879 | 1.07 | 1.04 | 0.864 | 0.92 | 0.952 | 0.871 | 0.669 | 0.39 | 0.372 | 0.423 | 0.384 |
